The values that follow come from patent US5393923A, “3,5-di-t-butyl-4-hydroxyphenylmethylhydroxylamines and their derivatives, pharmaceutical compositions, and methods of use therefor” (Warner-Lambert Company, priority 1993, dated 1995).

The structures appear in SMILES notation. Where a name gives a salt, the structure may show the parent alone. Read-outs that look alike come from different tables or passages of the source.

One test has as its target T1, 5-lipoxygenase (Rattus norvegicus, UniProt P12527).
T1 construct: host or cells: RBL-1
T1 sequence (P12527 1-673): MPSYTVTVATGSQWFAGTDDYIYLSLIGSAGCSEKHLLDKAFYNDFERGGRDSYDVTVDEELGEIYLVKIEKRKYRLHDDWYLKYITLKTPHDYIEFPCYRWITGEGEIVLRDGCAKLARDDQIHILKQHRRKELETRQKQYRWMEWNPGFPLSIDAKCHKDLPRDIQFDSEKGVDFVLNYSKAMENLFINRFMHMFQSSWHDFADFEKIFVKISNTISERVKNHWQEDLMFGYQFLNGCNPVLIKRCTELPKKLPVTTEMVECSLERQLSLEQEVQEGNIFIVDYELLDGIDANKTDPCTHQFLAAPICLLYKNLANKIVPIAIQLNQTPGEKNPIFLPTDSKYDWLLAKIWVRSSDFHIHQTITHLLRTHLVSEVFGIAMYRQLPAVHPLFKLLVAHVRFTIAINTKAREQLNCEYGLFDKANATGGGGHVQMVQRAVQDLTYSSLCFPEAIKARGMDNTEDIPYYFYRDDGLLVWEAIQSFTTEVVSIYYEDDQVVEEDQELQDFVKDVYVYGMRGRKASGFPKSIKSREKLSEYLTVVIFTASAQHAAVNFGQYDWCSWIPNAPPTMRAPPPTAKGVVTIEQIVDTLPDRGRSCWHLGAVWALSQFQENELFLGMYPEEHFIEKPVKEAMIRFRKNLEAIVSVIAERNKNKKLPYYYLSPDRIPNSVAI
Description: ARBL whole cell 5-lipoxygenase assay (LTB4 formation, RBL-1 cells). Format: cell-based. The method, then: (§1) ARBL/ARBC WHOLE CELL 5-LIPOXYGENASE AND CYCLOOXYGENASE ASSAYS The rat basophilic leukemia cell line (RBL-1) was obtained from the American Type Culture Collection (Rockville, Md.). Radioimmunoassay (RIA) kits of LTB4 and PGF2α were obtained from Amersham (Arlington Heights, Ill.) and Seragen (Boston, Mass.), respectively. RBL-1 cells are grown in suspension culture in Eagle's minimum essential medium supplemented with 12% fetal bovine serum at 37° C. in an incubator supplied with air-5% carbon dioxide. Cells are harvested by centrifugation. They are washed with cold phosphate-buffered saline, pH 7.4 (PBS; NaCl, 7.1 g; Na2 HPO4, 1.15 g; KH2 PO4, 0.2 g; and KCl, 0.2 g/L). Cells are finally suspended in PBS containing 1.0 mM calcium at a density of 2×10^6 cells/mL. Cells are incubated […] test agent (in DMSO) (1% DMSO is without effect on arachidonic acid metabolism) for 10 minutes at room temperature. Calcium ionophore A23187 (5 μM) is added and cells are incubated for 7 minutes at 37° C. The reaction is stopped by chilling the tubes on ice for 10 minutes. Cells are separated by centrifugation and the supernatant is stored at -20° C. Aliquots (100 μL) are analyzed for LTB4 and PGF2α using radioimmunoassay kits as provided by the supplier. Table 1 contains biochemical data for compounds of Formula I obtained from this whole cell assay as amount of inhibition at given μM or IC50 s which are calculated as the concentration of a test compound in micromoles (μM) causing 50% inhibition of LTB4 or PGF2αformation.

Another test concerns the target T2, cyclooxygenase (Rattus norvegicus, UniProt Q63921).
T2 construct: host or cells: RBL-1
T2 sequence (Q63921 27-602): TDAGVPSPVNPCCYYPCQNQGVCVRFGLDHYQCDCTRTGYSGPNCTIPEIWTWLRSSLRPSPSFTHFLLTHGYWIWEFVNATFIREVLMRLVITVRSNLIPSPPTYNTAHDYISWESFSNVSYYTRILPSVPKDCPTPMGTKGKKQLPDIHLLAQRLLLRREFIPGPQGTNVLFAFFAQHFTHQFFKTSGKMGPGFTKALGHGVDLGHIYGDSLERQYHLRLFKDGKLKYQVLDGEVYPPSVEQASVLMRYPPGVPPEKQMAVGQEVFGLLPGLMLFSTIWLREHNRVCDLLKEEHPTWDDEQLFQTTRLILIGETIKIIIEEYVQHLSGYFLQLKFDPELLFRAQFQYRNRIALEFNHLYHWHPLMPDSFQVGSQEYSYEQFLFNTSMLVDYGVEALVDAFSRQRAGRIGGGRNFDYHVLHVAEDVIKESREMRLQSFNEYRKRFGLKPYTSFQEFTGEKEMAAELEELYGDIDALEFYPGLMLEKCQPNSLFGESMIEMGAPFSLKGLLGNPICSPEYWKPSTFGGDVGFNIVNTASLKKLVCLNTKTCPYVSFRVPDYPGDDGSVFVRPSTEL
The test can be described thus: ARBC whole cell cyclooxygenase assay (PGF2α formation, RBL-1 cells). Format: cell-based. The method, then:
as §1

Test [1] has as its system carrageenan-induced rat foot paw edema. Description: Carrageenan-induced rat foot paw edema-2 (CFE-2) assay. Format: in vivo. The following applies: dosed 1 hour before carrageenan, edema measured 5 hours after, read-out: CFE ID40. The method, then: CARRAGEENAN-INDUCED RAT FOOT PAW EDEMA-2 (CFE-2) ASSAY: PROTOCOL
Carrageenan solution (1% w/v) is prepared by dissolving 100 mg carrageenan (Marine Colloidal Div., Springfield, N.J.) in 10 mL of sterile saline (0.9%) solution (Travenol). The solution is vortexed for 30 to 45 minutes. Animals are dosed with compound 1 hour before carrageenan challenge. Foot paw edema is induced by injecting 0.10 mL of the 1% carrageenan subcutaneously into the plantar portion of the right hind paw of each rat under light anesthesia. Initial foot paw volume is measured immediately following carrageenan challenge using mercury plethysmography (Buxco Electronics). Edema is measured 5 hours after carrageenan. The difference between the 5-hour and the initial paw volume is expressed as delta edema. The delta edema for each test group of animals is used to calculate the percent inhibition of edema achieved by the compound at the test dose compared with the vehicle control group. The ID40 (the dose at which swelling is inhibited by 40%) is calculated by probit analysis for the dose at which 40% inhibition occurs.

Where [2] appears, read: A23187, read-out: ARBL inhibition of LTB4 at given concentration.
[3] abbreviates: A23187, class symbol, read-out: ARBC inhibition at given concentration (N).
Setting [4] is: A23187, class symbol, read-out: ARBL inhibition at given concentration (N).

As for `CC(C)C(=O)N(O)C(C)c1cc(C(C)(C)C)c(O)c(C(C)(C)C)c1` (stereo not shown) [Example 4, N-[1-[3,5-Bis(1,1-dimethylethyl)-4-hydroxyphenyl]-ethyl]-N-hydroxy-2-methylpropanamide], the inhibition at 16 µM is above 91% on 5-lipoxygenase (setting [2]) and below 40% at cyclooxygenase (setting [3]).
On to `CC(=O)N(O)C(C)c1cc(C(C)(C)C)c(O)c(C(C)(C)C)c1` (stereo not shown) [Example 5, N-[1-[3,5-Bis(1,1-dimethylethyl)-4-hydroxyphenyl]-ethyl]-N-hydroxyacetamide], for which the inhibition at 16 µM is above 90% at 5-lipoxygenase (setting [2]) and below 40% at cyclooxygenase (setting [3]).
As for `CCOC(=O)N(O)C(C)c1cc(C(C)(C)C)c(O)c(C(C)(C)C)c1` (stereo not shown) [Example 6, [1-[3,5-Bis(1,1-dimethylethyl)-4-hydroxyphenyl]-ethyl]hydroxycarbamic acid, ethyl ester], the inhibition at 16 µM at 5-lipoxygenase (setting [2]) is above 96%; at cyclooxygenase (setting [3]), below 40%.
On to `CNC(=S)N(O)C(C)c1cc(C(C)(C)C)c(O)c(C(C)(C)C)c1` (stereo not shown) [Example 7, N-[1-[3,5-Bis(1,1-dimethylethyl)-4-hydroxyphenyl]-ethyl]-N-hydroxy-N'-methylthiourea], for which the inhibition at 16 µM on 5-lipoxygenase (setting [4]) and on cyclooxygenase (setting [3]) was below 40% throughout.
For the compound `CNC(=O)N(O)C(C)c1cc(C(C)(C)C)c(O)c(C(C)(C)C)c1` (stereo not shown) [Example 8, N-[1-[3,5-Bis(1,1-dimethylethyl)-4-hydroxyphenyl]-ethyl]-N-hydroxy-N'-methylure], the inhibition at 16 µM is below 40% on 5-lipoxygenase (setting [4]) and 45% at cyclooxygenase (A23187, read-out: ARBC inhibition of PGF2α at given concentration).
For `CCNC(=O)N(O)C(C)c1cc(C(C)(C)C)c(O)c(C(C)(C)C)c1` (stereo not shown) [Example 9, N-[1-[3,5-Bis(1,1-dimethylethyl)-4-hydroxyphenyl]-ethyl]-N'-ethyl-N-hydroxyurea], the inhibition at 16 µM at 5-lipoxygenase (setting [2]) was above 91%; at cyclooxygenase (setting [3]), below 40%.
For `CC(c1cc(C(C)(C)C)c(O)c(C(C)(C)C)c1)N(O)C(N)=O` (stereo not shown) [Example 10, N-[1-[3,5-Bis(1,1-dimethylethyl)-4-hydroxylphenyl]-ethyl]-N-hydroxyurea] the same measures were 79% and below 40%.
Turning to `CCOC(=O)NC(=S)N(O)C(C)c1cc(C(C)(C)C)c(O)c(C(C)(C)C)c1` (stereo not shown) [Example 11, [[[1-[3,5-Bis(1,1-dimethylethyl)-4-hydroxyphenyl]-ethyl]hydroxyamino]-thioxomethyl]carbamic acid, ethyl ester, acetate (10:3)], the inhibition at 16 µM is 91% on 5-lipoxygenase (setting [2]) and below 40% at cyclooxygenase (setting [3]).
For the compound `CC(=O)ON(Cc1cc(C(C)(C)C)c(O)c(C(C)(C)C)c1)C(C)=O` [Example 12, N-(Acetyloxy)-N-[[3,5-bis(1,1-dimethylethyl)-4-hydroxyphenyl]methyl]acetamide, 0.3 hydrate], the inhibition at 16 µM on 5-lipoxygenase (setting [2]) was 95%; at cyclooxygenase (setting [3]), below 40%.
For `CC(C)C(=O)ON(Cc1cc(C(C)(C)C)c(O)c(C(C)(C)C)c1)C(=O)C(C)C` [Example 13, N-[[3,5-Bis(1,1-dimethylethyl)-4-hydroxyphenyl]-methyl]-2-methyl-N-[2-methyl-1-oxopropoxy]propanamide], the inhibition at 16 µM on 5-lipoxygenase (setting [2]) was 49%; at cyclooxygenase (setting [3]) it was below 40%.
Take `CC(C)C(=O)N(O)Cc1cc(C(C)(C)C)c(O)c(C(C)(C)C)c1` [Example 14, N-[[3,5-Bis(1,1-dimethylethyl)-4-hydroxyphenyl]-methyl]-N-hydroxy-2-methylpropanamide]: the inhibition at 16 µM at 5-lipoxygenase (setting [2]) is 95%; on cyclooxygenase (setting [3]) it was below 40%.
As to `CC(=O)N(O)Cc1cc(C(C)(C)C)c(O)c(C(C)(C)C)c1` [Example 15], the results for the inhibition at 16 µM on 5-lipoxygenase (setting [2]) and on cyclooxygenase (setting [3]) were 90% and below 40%, respectively.
As to `CONC(c1ccccc1)c1cc(C(C)(C)C)c(O)c(C(C)(C)C)c1` (stereo not shown) [Example 18, 2,6-Bis(1,1-dimethylethyl)-4-[(methoxyamino)phenylmethyl]phenol, monohydrochloride], the inhibition at 10 µM on 5-lipoxygenase (setting [2]) is 93%; on cyclooxygenase (setting [3]), below 40%.
In the case of `CC(C)C(=O)N(O)C(c1ccccc1)c1cc(C(C)(C)C)c(O)c(C(C)(C)C)c1` (stereo not shown) [Example 21, N-[[3,5-Bis(1,1-dimethylethyl)-4-hydroxyphenyl]-phenylmethyl]-N-hydroxy-2-methylpropanamide], in test [1], the ED40 is 5.3 mg/kg.
In the case of `CCOC(=O)N(O)C(c1ccccc1)c1cc(C(C)(C)C)c(O)c(C(C)(C)C)c1` (stereo not shown) [Example 23, N-[[3,5-Bis(1,1-dimethylethyl)-4-hydroxyphenyl]-phenylmethyl]hydroxycarbamic acid, ethyl ester], the values for the inhibition at 16 µM at 5-lipoxygenase (setting [2]) and on cyclooxygenase (setting [3]) were 97% and below 40%, respectively.
As for `CCNC(=O)N(O)C(c1ccccc1)c1cc(C(C)(C)C)c(O)c(C(C)(C)C)c1` (stereo not shown) [Example 24, N-[[3,5-Bis(1,1-dimethylethyl)-4-hydroxyphenyl]-phenylmethyl]-N'-ethyl-N-hydroxyurea], the figures for the inhibition at 16 µM at 5-lipoxygenase (setting [2]) and on cyclooxygenase (setting [3]) were 99% and below 40%, respectively.
For `CNC(=O)N(O)C(c1ccccc1)c1cc(C(C)(C)C)c(O)c(C(C)(C)C)c1` (stereo not shown) [Example 25, N-[[3,5-Bis(1,1-dimethylethyl)-4-hydroxyphenyl]-phenylmethyl]-N-hydroxy-N'-methylurea] the same measures were 93% and below 40%.
On the same counts, the results for `CNC(=S)N(O)C(c1ccccc1)c1cc(C(C)(C)C)c(O)c(C(C)(C)C)c1` (stereo not shown) [Example 26, N-[[3,5-Bis(1,1-dimethylethyl)-4-hydroxyphenyl]-phenylmethyl]-N-hydroxy-N'-methylthiourea] are 98% and below 40%.
With `CC(C)(C)c1cc(C(c2ccccc2)N(O)C(N)=O)cc(C(C)(C)C)c1O` (stereo not shown) [Example 27, N-[[3,5-Bis(1,1-dimethylethyl)-4-hydroxyphenyl]-phenylmethyl]-N-hydroxyurea], the inhibition at 10 µM on 5-lipoxygenase (setting [2]) is 97%; at cyclooxygenase (setting [3]), below 40%.
